Molecules are shown by their SMILES.

Test [1] addresses T1, human neurokinin 2 (NK2) receptor (Homo sapiens, UniProt P21452).
T1 construct: expressed in transfected cells; host or cells: Chinese hamster ovary (CHO) cells, G418 medium; membranes
T1 sequence (P21452 1-398): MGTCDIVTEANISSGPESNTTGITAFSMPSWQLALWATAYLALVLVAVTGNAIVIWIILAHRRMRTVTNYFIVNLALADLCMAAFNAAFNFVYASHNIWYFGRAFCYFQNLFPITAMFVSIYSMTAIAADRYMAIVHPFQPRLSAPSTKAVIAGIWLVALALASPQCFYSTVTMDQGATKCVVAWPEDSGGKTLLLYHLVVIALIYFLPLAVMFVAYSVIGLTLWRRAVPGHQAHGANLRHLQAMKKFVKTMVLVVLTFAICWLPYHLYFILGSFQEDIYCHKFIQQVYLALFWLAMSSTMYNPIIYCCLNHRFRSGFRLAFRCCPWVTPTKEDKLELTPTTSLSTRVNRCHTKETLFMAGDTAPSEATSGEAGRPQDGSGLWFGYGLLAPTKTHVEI
As to the kind of experiment: Neurokinin NK2 receptor binding assay ([3H]-Neurokinin A, CHO cell membranes). The note with it: for inhibition at 1 µM: 1 μM concentration. Here is the method: (§1) Chinese Hamster ovary (CHO) cells transfected with the coding regions for the human neurokinin 1 (NK1) of the human neurokinin 2 (NK2) receptors are grown in Dulbecco's minimal essential medium supplemented with 10% fetal calf serum, 0.1 mM non-essential amino acids, 2 mM glutamine, 100 units/ml of penicillin and streptomycin, and 0.8 mg of G418/ml at 37° C. in a humidified atmosphere containing 5% CO2.
(§2) Cells are detached from T-175 flasks with a sterile solution containing 5 mM EDTA in phosphate buffered saline. Cells are harvested by centrifugation and washed in RPMI media at […] for 5 minutes. The pellet is resuspended in Tris-HCl (pH7.4) containing 1 uM phsphoramidon and 4 ug/ml of chymostatin at a cell density of 30×10^6 cells/ml. The suspension is then homogenized in a Brinkman Polytron (setting 5) for 30-45 seconds. The homogenate is centrifuged at 800×g for 5 min at […] to collect unbroken cells and nuclei. The supernatant is centrifuged in a Sorvall RC5C at 19,000 rpm ([…]) for 30 min at 4° C. The pellet is resuspended, an aliquot is removed for a protein determination (BCA) and washed again. The resulting pellet is stored at -80° C.
(§3) Binding is initiated by the addition of 100 μl of membrane (10-20 μg) containing the human NK-1 or NK-2 receptor in a final volume of 200 μl. After 40 minutes at room temperature, the reaction is stopped by rapid filtration onto Whatman GF/C filters which have been presoaked in 0.3% polyethylenimine. Filters are washed 2 times with 3 ml of 50 mM Tris-HCl (pH7.4). Filters are added to 6 mls of Ready-Safe liquid scintillation cocktail and quantified by liquid scintillation spectrometry in a LKB 1219 RackBeta counter. Non-specific binding is determined by the addition of either 1 μM of CP-99994 (NK1) or 1 μM SR-48968 (NK2) (both synthesized by the chemistry department of Schering-Plough Research Institute).

The target of test [2] is T2, human neurokinin 1 (NK1) receptor (Homo sapiens, UniProt P25103).
T2 construct: expressed in transfected cells; host or cells: Chinese hamster ovary (CHO) cells, G418 medium; membranes
T2 sequence (P25103 whole entry): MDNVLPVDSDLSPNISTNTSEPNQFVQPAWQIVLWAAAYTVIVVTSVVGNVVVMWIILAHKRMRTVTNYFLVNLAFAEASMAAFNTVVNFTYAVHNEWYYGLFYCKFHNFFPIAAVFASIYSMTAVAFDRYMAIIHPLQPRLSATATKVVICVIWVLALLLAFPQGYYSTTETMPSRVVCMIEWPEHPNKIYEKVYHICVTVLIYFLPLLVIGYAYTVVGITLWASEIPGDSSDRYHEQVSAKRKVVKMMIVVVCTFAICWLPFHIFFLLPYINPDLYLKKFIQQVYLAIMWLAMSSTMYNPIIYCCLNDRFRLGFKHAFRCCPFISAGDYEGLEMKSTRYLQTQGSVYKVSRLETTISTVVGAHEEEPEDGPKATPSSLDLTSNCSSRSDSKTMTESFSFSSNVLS
In words: Neurokinin NK1 receptor binding assay ([3H]-Substance P, CHO cell membranes). The settings on record: for Ki: [3H]-Substance P 0.8 nM, Cheng and Prusoff. As for the experimental part: as §1, §2, §3

For the compound `COC1(C[S+]([O-])c2ccccc2)CCN(CC(=O)N2CCN(Cc3cc(C(F)(F)F)cc(C(F)(F)F)c3)CC2c2ccc(Cl)c(Cl)c2)CC1` (stereo not drawn), at 1 µM the inhibition in test [1] was 24%. The compound further registered a Ki in test [2] of 136 nM.

On to `Cc1cccc(C)c1N1CCN(CC(=O)N2CCN(Cc3cc(C(F)(F)F)cc(C(F)(F)F)c3)CC2c2ccccc2)CC1` (stereo not drawn), for which the results for the inhibition at 1 µM in test [1] and in test [2] (1 μM concentration) were 0% and 48%, respectively.

As to `O=C(CNC1CCN(Cc2ccccc2)CC1)N1CCN(Cc2cccc(C(F)(F)F)c2)CC1c1ccc(Cl)c(Cl)c1` (stereo not drawn), the Ki worked out at 175 nM in test [1] ([3H]-Neurokinin A 1.0 nM, Cheng and Prusoff); 30 nM in test [2].

The values are drawn from US5798359A, “Piperazino derivatives as neurokinin antagonists” (Schering Corporation, priority 1995, dated 1998).
